Experimental data from patent publication US8673268B2, “Molecular targets and compounds, and methods to identify the same, useful in the treatment of joint degenerative and inflammatory diseases” (Galapagos N.V., priority 2004, dated 2014).

Columns and labels:
rheumatoid arthritis = conditions: RA patients, after 24 months treatment; cited from earlier work
[1] = tested on: MMP1 expression by synovial fibroblasts (SFs); test: reverse MMP1 assay: MMP1 ELISA on supernatant of SFs activated with TNFα-based trigger; type: cell-based; conditions: Homo sapiens, Fibroblast, supernatant collected 48 hours after trigger, FIG. 5, read-out: IC50 for reduction of TNF-based trigger-induced MMP1 expression by SFs
Method: A 384-well format ELISA for measurement of MMP1 is developed. Various primary antibodies are tested, as well as various ELISA protocols. The following protocol is developed and validated to measure MMP1 levels in SF supernatant in 384 well plates: white Lumitrac 600 384 well plates (Greiner) are coated with 2 μg/ml anti-MMP1 antibody MAB1346 (Chemicon). The antibody is diluted in buffer 40 (1.21 g Tris base (Sigma), 0.58 g NaCl (Calbiochem) and 5 ml 10% NaN3 (Sigma) in 1 L milliQ water and adjusted to pH 8.5). After overnight incubation at 4° C., plates are washed with PBS (80 g NaCl, 2 g KCl (Sigma), 11.5 g Na2HPO4.7H2O and 2 g KH2PO4 in 10 L milliQ; pH 7.4) and blocked with 100 μl/well Casein buffer (2% Casein (VWR International) in PBS). Next day, casein buffer is removed from ELISA plates and replaced by 50 μl/well EC buffer (4 g casein, 2.13 g Na2HPO4 (Sigma), 2 g bovine albumin (Sigma), 0.69 g NaH2PO4.H2O (Sigma), 0.5 g CHAPS (Roche), 23.3 g NaCl, 4 ml 0.5 M EDTA pH 8 (Invitrogen), 5 ml 10% NaN3 in 1 L milliQ and adjusted to pH 7.0). 0.25 mM DTT (Sigma) are added to the thawed samples plates. After removal of the EC buffer, 20 μl of sample are transferred to the ELISA plates. […] Readout is performed on the Luminoscan Ascent Luminometer (Labsystems) with an integration time of 200 msec or with an Envision reader (Perkin Elmer). […]

TIMP-2 secretion by SFs = test: TIMP-2 secretion ELISA; type: cell-based, human
Method: The secretion of TIMP-2 by SFs is determined to eliminate the factor of general suppression of SF secretory activity by the Ad-siRNAs as the cause of reduced expression of MMP1 in the reverse MMP1 assay. TIMP-2 is a protein that SFs express and secret constitutively. Secretion of TIMP-2 into the SF supernatant is blocked by the addition of BrefeldinA, a small molecule inhibitor of secretion. The level of SF TIMP-2 protein secretion is detected by ELISA. RASF cells are seeded in 96-well gelatin coated plates at 3000 cells/well in 100 μl synovial growth medium. After overnight incubation, cells are infected and incubated for 5 days at 37° C. in a 10% CO2 incubator. […] TIMP2 levels are determined by a standard ELISA assay, essentially as outlined for the MMP1 ELISA. […] After 5 minutes incubation at room temperature in the dark, luminescence is quantified on a luminometer (Luminoscan Ascent).
The procedure described above (plate layout, MOI, method for determination of the cutoff) applied for these experiments is identical to the one described for the toxicity measurements (i.e., a primary test with 12 μl infection volume and a retest with 3, 6, 12 μl infection volumes) differing only in that the cutoff applied in the primary test is determined as the average over all samples minus 2 times standard deviation over all samples. […]

**Q.** Which “patients achieving an ACR50 score” value (rheumatoid arthritis) does the source give for `CN(Cc1cnc2nc(N)nc(N)c2n1)c1ccc(C(=O)N[C@@H](CCC(=O)O)C(=O)O)cc1` [methotrexate] here?
**A.** 30%

**Q.** For `C[C@@H]1C[C@H]2[C@@H]3CCC4=CC(=O)C=C[C@]4(C)[C@@]3(F)[C@@H](O)C[C@]2(C)[C@@]1(O)C(=O)CO` [dexamethasone], which IC50 [1] is on record?
**A.** ~1 nM

**Q.** For `C[C@H]1CCC/C=C/[C@@H]2C[C@H](O)C[C@H]2[C@H](O)/C=C/C(=O)O1` [BrefeldinA], which “secretion of TIMP-2 into the SF supernatant” value (TIMP-2 secretion by SFs) is on record?
**A.** blocked
